According to US20230147257A1 (DONG-A ST CO., LTD., priority 2020, published 2023):
Where two headings read alike, the source gives them in different places.

Tests used:
Format in all cases: cell-based
AhR [1] = target: T1, AhR (Mus musculus, UniProt P30561); experiment: In vitro assay 2: XRE-luciferase reporter assay, antagonism in mouse cell line (Hepa1c1c7); details: Hepa1c1c7 XRE-Luc, 6 hours
T1 sequence (P30561 1-848): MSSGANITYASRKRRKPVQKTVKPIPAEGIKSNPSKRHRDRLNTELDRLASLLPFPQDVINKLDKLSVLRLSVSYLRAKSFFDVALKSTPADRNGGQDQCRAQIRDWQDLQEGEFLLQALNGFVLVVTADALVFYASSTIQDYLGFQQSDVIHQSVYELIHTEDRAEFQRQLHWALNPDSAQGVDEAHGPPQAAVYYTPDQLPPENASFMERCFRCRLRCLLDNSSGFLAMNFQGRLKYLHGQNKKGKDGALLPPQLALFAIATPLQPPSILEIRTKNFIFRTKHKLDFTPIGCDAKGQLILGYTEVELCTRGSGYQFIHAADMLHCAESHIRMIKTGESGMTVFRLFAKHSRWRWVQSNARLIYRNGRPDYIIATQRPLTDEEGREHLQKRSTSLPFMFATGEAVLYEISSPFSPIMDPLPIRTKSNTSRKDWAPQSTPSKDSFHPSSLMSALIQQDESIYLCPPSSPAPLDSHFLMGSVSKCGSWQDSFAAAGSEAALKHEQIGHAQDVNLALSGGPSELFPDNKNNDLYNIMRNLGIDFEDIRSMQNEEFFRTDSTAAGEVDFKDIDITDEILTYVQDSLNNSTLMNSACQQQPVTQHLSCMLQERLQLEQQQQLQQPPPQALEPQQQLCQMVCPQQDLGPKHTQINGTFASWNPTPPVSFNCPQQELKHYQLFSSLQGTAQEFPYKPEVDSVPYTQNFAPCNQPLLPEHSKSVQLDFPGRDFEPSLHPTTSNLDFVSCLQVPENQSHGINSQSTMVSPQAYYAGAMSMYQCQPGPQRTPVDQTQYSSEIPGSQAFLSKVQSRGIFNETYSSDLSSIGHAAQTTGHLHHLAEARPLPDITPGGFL
Text: (§1) In Vitro XRE-Luciferase Reporter Assay (In Vitro Assay 1, 2, 3)
(§2) AhR activation leads the induction of target gene expression such as CYP1A1 and CYP1B1 by AhR binding to AhR-responsive DNA elements also known as xenobiotics responsive elements (XRE). The assay for measuring AhR activity herein is the luciferase assay using cell lines transfected with luciferase reporter plasmid containing XREs at the upstream of the reporter gene. Cells transfected with XRE-luciferase reporter (XRE-Luc) plasmid drive luciferase activity reflecting activation and inhibition of AhR in the cells. In addition to transfection with XRE-reporter vector, cells were co-transfected with Nano-luciferase reporter gene construct (Nano-Luc) containing constitutively active promoter as internal control. Kynurenine (an endogenous AhR agonist) was used to stimulate cells to test antagonistic properties of the compounds. The half-maximal inhibitory concentration (IC50) or half-maximal effective concentration (EC50) value was calculated using nonlinear regression (four parameters) with Prism8.0 software (GraphPad).
In Vitro Assay 2: Antagonism in Mouse Cell Line
Hepa1c1c7 (murine liver cancer cell line) cells co-transfected with XRE-Luc and Nano-Luc plasmids were plated in complete medium and incubated overnight at 37° C. in a CO2 incubator. Following incubation, cells were treated with AhR activating ligands such as kynurenic acid, kynurenine(#) with or without test compounds for 6 hours. Firefly luciferase and Nano-luciferase activity was measured using Nano-glo Luciferase kit (Promega) and relative luciferase activity (Firefly/Nano-Luc) was used to calculate IC50 values. The relative luciferase activity was further normalized with agonists alone group as the maximum control and the vehicle group as the minimum control. (IC50 Values are grouped as A, B, C and D, whereby A: IC50<0.01 μM; B: 0.01<IC50<0.1 μM; C: 0.1<IC50<1.0 μM; D: IC50>1.0 μM)

AhR [2] = target: T2, AhR (Homo sapiens, UniProt P35869); experiment: In vitro assay 4: endogenous AhR activity assay (CYP1A1 and CYP1B1 mRNA, qRT-PCR, HepG2 cells); details: TCDD 10 nM with compound 123 nM, 4 hours, mRNA relative to β-actin, read-out: CYP1A1 (% Inhibition)
T2 construct: host or cells: HepG2
T2 sequence (P35869 11-848): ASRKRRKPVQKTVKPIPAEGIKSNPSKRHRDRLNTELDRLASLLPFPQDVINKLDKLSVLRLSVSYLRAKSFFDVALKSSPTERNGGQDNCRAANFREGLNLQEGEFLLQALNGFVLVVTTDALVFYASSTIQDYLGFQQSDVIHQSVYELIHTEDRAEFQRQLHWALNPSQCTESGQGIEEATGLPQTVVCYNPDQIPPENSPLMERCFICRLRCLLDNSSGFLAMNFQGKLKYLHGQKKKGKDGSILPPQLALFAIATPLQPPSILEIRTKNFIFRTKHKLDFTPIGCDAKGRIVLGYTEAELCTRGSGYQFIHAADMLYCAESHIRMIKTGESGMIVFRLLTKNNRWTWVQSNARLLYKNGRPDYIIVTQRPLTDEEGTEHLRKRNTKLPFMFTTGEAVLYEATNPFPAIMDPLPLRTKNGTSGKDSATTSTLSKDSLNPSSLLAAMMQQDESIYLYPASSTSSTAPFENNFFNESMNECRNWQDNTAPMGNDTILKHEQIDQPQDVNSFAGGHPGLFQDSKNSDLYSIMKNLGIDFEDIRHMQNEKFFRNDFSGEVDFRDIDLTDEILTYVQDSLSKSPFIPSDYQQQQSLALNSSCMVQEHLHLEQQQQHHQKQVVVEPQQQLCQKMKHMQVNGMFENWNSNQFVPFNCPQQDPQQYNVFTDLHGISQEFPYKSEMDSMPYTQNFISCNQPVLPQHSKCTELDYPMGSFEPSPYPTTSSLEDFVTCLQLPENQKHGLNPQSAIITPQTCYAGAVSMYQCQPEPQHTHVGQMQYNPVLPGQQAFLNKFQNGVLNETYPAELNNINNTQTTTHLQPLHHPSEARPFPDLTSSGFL
Protocol: In Vitro Assay 4: Endogenous AhR Activity Assay
HepG2 cells were seeded in 12-well plate (3×10^5 cells/well). A day after seeding, the cells were treated with TCDD (10 nM) alone or with compounds (123 nM) for 4 hours. Total RNA was extracted using Trizol (Thermo Fisher Scientific). cDNA synthesis and quantitative RT-PCR (qRT-PCR) assays were performed using PrimeScript™ RT Master Mix (TAKARA) and TB Green™ Premix Ex Taq™ II (TAKARA) in accordance with manufacturer's instruction. For the measurement of endogenous AhR activity, relative mRNA levels of CYP1A1 and CYP1B1 were quantitated relative to β(beta)-actin mRNA by the comparative Ct (ΔΔCt) method. The percent inhibitions were calculated according to: […]

AhR [3] = target: T2, AhR; experiment: In vitro assay 1: XRE-luciferase reporter assay, antagonism in human cell line (HepG2); details: HepG2 XRE-luciferase, cells treated with kynurenine 200 μM (no *), 6 hours; read-out: Assay 1: AhR-Luc Human Antagonism (IC50)
Summary of the method: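 HepG2 cells carrying XRE-firefly luciferase (transient or stable) plus constitutive Nano-Luc control, stimulated 6 h with kynurenine (50 or 200 μM) with or without compound. Firefly/Nano-Luc ratio normalized to kynurenine-alone (maximum) and vehicle (minimum); IC50 by four-parameter nonlinear regression.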

AhR [4] = target: T2, AhR; experiment: In vitro assay 3: XRE-luciferase reporter assay, agonism in human cell line (HepG2); details: HepG2 XRE-Luc, tryptophan free medium, test compound alone, 6 hours
Text: as §1, §2
In Vitro Assay 3: Agonism in Human Cell Line
HepG2 (human hepatoma cell line) cells co-transfected with XRE-Luc and Nano-Luc plasmids were plated in tryptophan free medium containing 1% of dialyzed fetal bovine serum and incubated overnight at 37° C. in a CO2 incubator. After 24 hours, cells were treated for 6 hours with test compounds or not. Firefly luciferase and Nano-luciferase activity was measured using Nano-glo Luciferase kit (Promega) and relative luciferase activity (Firefly/Nano-Luc) was used to calculate EC50 values. As a positive control, cells were incubated with TCDD. (EC50 Values are grouped as A, B, C and D, whereby A: EC50<0.1 μM; B: 0.1<EC50<1.0 μM; C: 1.0<EC50<10 μM; D: EC50>10 μM)

[5] = AhR activating ligand such as kynurenic acid (no #)
[6] = read-out: Assay 3: AhR-Luc Human Agonism (EC50)
[7] = read-out: Assay 3: AhR-Luc Human Agonism (EC50, nM), class in brackets
[8] = cells treated with kynurenine (#)

O=c1c2cc(-c3ccc(Cl)cc3)nc(-c3cccnc3)c2ncn1[C@H]1CC[C@H](O)CC1 [Example 56, 6-(4-chlorophenyl)-3-((1r,4r)-4-hydroxycyclohexyl)-8-(pyridin-3-yl)pyrido[3,4-d]pyrimidin-4(3H)-one]
IC50 (AhR [1]; [5]): < 10 nM
inhibition at 0.123 µM (AhR [2]): 101%
IC50 (AhR [3]): < 10 nM
EC50 (AhR [4]; [6]): > 30000 nM
EC50 (AhR [4]; [7]): > 10000 nM

O=c1c2cc(-c3ccc(C(F)(F)F)cc3)nc(-c3cccnc3)c2ncn1CC(O)CO (centres unmarked) [Example 66, 3-(2,3-dihydroxypropyl)-8-(pyridin-3-yl)-6-(4-(trifluoromethyl)phenyl)pyrido[3,4-d]pyrimidin-4(3H)-one]
IC50 (AhR [1]; [8]): 10 to 100 nM
inhibition at 0.123 µM (AhR [2]): 100%
IC50 (AhR [3]): < 10 nM

CC(=O)NCC(C)n1cnc2c(-c3cccnc3)nc(-c3ccc(Cl)cc3)cc2c1=O (centres unmarked) [Example 88, N-(2-(6-(4-chlorophenyl)-4-oxo-8-(pyridin-3-yl)pyrido[3,4-d]pyrimidin-3(4H)-yl)propyl)acetamide]
IC50 (AhR [1]; [8]): 10 to 100 nM
inhibition at 0.123 µM (AhR [2]): 99.2%
IC50 (AhR [3]): < 10 nM
EC50 (AhR [4]; [6]): > 30000 nM
EC50 (AhR [4]; [7]): > 10000 nM

CC(CO)n1cnc2c(-c3cccnc3)nc(-c3ccc(N4CCOCC4)cc3)cc2c1=O (centres unmarked) [Example 75, 3-(1-hydroxypropan-2-yl)-6-(4-morpholinophenyl)-8-(pyridin-3-yl)pyrido[3,4-d]pyrimidin-4(3H)-one]
IC50 (AhR [1]; [8]): 10 to 100 nM
inhibition at 0.123 µM (AhR [2]): 101%
IC50 (AhR [3]): < 10 nM
EC50 (AhR [4]; [6]): > 30000 nM
EC50 (AhR [4]; [7]): > 10000 nM

CC(=O)N1CCC(n2cnc3c(-c4cccnc4)nc(-c4ccc(Cl)cc4)cc3c2=O)CC1 [Example 96, 3-(1-acetylpiperidin-4-yl)-6-(4-chlorophenyl)-8-(pyridin-3-yl)pyrido[3,4-d]pyrimidin-4(3H)-one]
IC50 (AhR [1]; [5]): < 10 nM
inhibition at 0.123 µM (AhR [2]): 99.9%
IC50 (AhR [3]): < 10 nM
EC50 (AhR [4]; [6]): > 30000 nM
EC50 (AhR [4]; [7]): > 10000 nM
